The target of experiment [1] is full-length hepatitis C NS3 protease with NS4A cofactor (Hepatitis C virus genotype 1a (isolate H77) (HCV), UniProt P27958). The experiment in a line: HCV NS3/4A protease inhibition (enzymatic) assay.
Experimental: The aim of this in vitro assay was to measure the inhibition of HCV NS3/4A protease complexes by the compounds of the present invention.
The inhibition of full-length hepatitis C NS3 protease enzyme was measured essentially as described in Poliakov, 2002 Prot Expression & Purification 25 363 371. Briefly, the hydrolysis of a depsipeptide substrate, Ac-DED(Edans)EEAbuψ[COO]ASK(Dabcyl)-NH2 (AnaSpec, San José, USA), was measured spectrofluorometrically in the presence of a peptide cofactor, [sequence] […] The enzyme (1 nM) was incubated in 50 mM HEPES, pH 7.5, 10 mM DTT, 40% glycerol, 0.1% n-octyl-D-glucoside, with 25 μM NS4A cofactor and inhibitor at 30° C. for 10 min, whereupon the reaction was initiated by addition of 0.5 μM substrate. Inhibitors were dissolved in DMSO, sonicated for 30 sec. and vortexed. The solutions were stored at −20° C. between measurements.
The final concentration of DMSO in the assay sample was adjusted to 3.3%. The rate of hydrolysis was corrected for inner filter effects according to published procedures. […] A minimum of two replicates was performed for all measurements.
Experiment [2] deals with HCV type 1b replicon in Huh-7 luc/neo cells. The experiment in a line: HCV replicon assay (Huh-Luc cells, luciferase readout). Particulars: Hepatitis C virus, Huh-7, 72 h, three days incubation, luciferase activity. In kind it is cell-based. An excerpt:
The compounds of formula (I) were examined for activity in the inhibition of HCV RNA replication in a cellular assay. […] The cellular assay was based on a bicistronic expression construct, as described by Lohmann et al. (1999) Science vol. 285 pp. 110-113 with modifications described by Krieger et al. (2001) Journal of Virology 75: 4614-4624, in a multi-target screening strategy. In essence, the method was as follows.
The assay utilized the stably transfected cell line Huh-7 luc/neo (hereafter referred to as Huh-Luc). This cell line harbors an RNA encoding a bicistronic expression construct comprising the wild type NS3-NS5B regions of HCV type 1b translated from an Internal Ribosome Entry Site (IRES) from encephalomyocarditis virus (EMCV), preceded by a reporter portion (FfL-luciferase), and a selectable marker portion (neo^R, neomycine phosphotransferase). The construct is bordered by 5′ and 3′ NTRs (non-translated regions) from HCV type 1b. Continued culture of the replicon cells in the presence of G418 (neo^R) is dependent on the replication of the HCV RNA. The stably transfected replicon cells that express HCV RNA, which replicates autonomously and to high levels, encoding inter alia luciferase, are used for screening the antiviral compounds.
The replicon cells were plated in 384 well plates in the presence of the test and control compounds which were added in various concentrations. Following an incubation of three days, HCV replication was measured by assaying luciferase activity (using standard luciferase assay substrates and reagents and a Perkin Elmer ViewLux™ ultraHTS microplate imager). Replicon cells in the control cultures have high luciferase expression in the absence of any inhibitor. The inhibitory activity of the compound on luciferase activity was monitored on the Huh-Luc cells, enabling a dose-response curve for each test compound.
A general note: Replicon systems follow genome replication, usually without infectious particles.

For six compounds, Ki and EC50 results are on record in patent US8754105B2, “Macrocyclic inhibitors of hepatitis C virus” (Medivir AB, priority 2005, dated 2014).

Sequence of full-length hepatitis C NS3 protease with NS4A cofactor (P27958 1027-1657): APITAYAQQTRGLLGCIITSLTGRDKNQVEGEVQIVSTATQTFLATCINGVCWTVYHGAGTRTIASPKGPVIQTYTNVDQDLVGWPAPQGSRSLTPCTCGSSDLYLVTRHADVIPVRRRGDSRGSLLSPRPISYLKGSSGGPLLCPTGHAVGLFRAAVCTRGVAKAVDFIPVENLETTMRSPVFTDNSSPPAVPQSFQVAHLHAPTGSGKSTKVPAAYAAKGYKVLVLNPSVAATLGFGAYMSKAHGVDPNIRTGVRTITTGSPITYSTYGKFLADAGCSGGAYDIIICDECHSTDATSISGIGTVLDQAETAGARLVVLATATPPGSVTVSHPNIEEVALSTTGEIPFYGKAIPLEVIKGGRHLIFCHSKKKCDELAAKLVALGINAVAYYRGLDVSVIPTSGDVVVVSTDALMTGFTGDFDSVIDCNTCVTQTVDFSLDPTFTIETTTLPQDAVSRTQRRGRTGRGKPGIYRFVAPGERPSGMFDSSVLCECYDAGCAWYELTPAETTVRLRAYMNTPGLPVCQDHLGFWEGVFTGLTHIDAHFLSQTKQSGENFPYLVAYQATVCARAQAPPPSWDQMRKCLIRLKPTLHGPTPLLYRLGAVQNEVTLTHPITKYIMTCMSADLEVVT

The term Ki denotes a dissociation constant, usually derived from enzyme kinetics or from competition with a known ligand. One may read the EC50 as the concentration at which the effect is half-maximal. Low values mean a more potent agent, high ones a less potent agent. In experiment [1], `COc1ccc2c(O[C@@H]3C[C@H]4C(=O)N[C@]5(C(=O)O)C[C@H]5/C=C\CCCCOC(=O)N4C3)cc(-c3ccccc3)nc2c1` [Compound 22, 17-(7-methoxy-2-phenylquinolin-4-yloxy)-2,14-dioxo-3,15-diaza-13-oxatricyclo[13.3.0.0^4,6]octadec-7-ene-4-carboxylic acid] registered an inhibition constant Ki of 1070 nM. The same compound came in with an EC50 in experiment [2] of over 10000 nM.
The like results for `COc1ccc2c(O[C@@H]3C[C@H]4C(=O)N[C@]5(C(=O)NS(=O)(=O)C6CC6)C[C@H]5/C=C\CCCCOC(=O)N4C3)nc(Cl)cc2c1` [Compound 17, N-[17-(3-chloro-6-methoxyisoquinolin-1-yloxy)-2,14-dioxo-3,15-diaza-13-oxatricyclo[13.3.0.0^4,6]octadec-7-ene-4-carbonyl](cyclopropyl) sulfonamide] were, in that order, 43 nM and over 10000 nM.
In the case of `COc1ccc2c(O[C@@H]3C[C@H]4C(=O)N[C@]5(C(=O)O)C[C@H]5/C=C\CCCCCOC(=O)N4C3)cc(-c3ccccc3)nc2c1` [Compound 24, 18-(7-methoxy-2-phenylquinolin-4-yloxy)-2,15-dioxo-3,16-diaza-14-oxatricyclo[14.3.0.0^4,6]nonadec-7-ene-4-carboxylic acid], the Ki in experiment [1] was 40 nM. Moreover, in experiment [2], the EC50 is over 10000 nM.
For `COc1ccc2c(O[C@@H]3C[C@H]4C(=O)N[C@]5(C(=O)O)C[C@H]5/C=C\CCCCOC(=O)N4C3)nc(Cl)cc2c1` [Compound 16, 17-(3-chloro-6-methoxyisoquinolin-1-yloxy)-2,14-dioxo-3,15-diaza-13-oxatricyclo[13.3.0.0^4,6]octadec-7-ene-4-carboxylic acid], in that order: 1000 nM and over 10000 nM.
For `COc1ccc2c(O[C@@H]3C[C@H]4C(=O)N[C@]5(C(=O)NS(=O)(=O)C6CC6)C[C@H]5/C=C\CCCCCOC(=O)N4C3)cc(-c3ccccc3)nc2c1` [Compound 25, N-[18-(7-methoxy-2-phenylquinolin-4-yloxy)-2,15-dioxo-3,16-diaza-14-oxatricyclo[14.3.0.0^4,6]nonadec-7-ene-4-carbonyl](cyclopropyl)-sulfonamide], in that order: 2.4 nM and 481 nM.
For `COc1ccc2c(O[C@@H]3C[C@H]4C(=O)N[C@]5(C(=O)NS(=O)(=O)C6CC6)C[C@H]5/C=C\CCCCOC(=O)N4C3)cc(-c3ccccc3)nc2c1` [Compound 23, N-[17-(7-methoxy-2-phenylquinolin-4-yloxy)-2,14-dioxo-3,15-diaza-13-oxatricyclo[13.3.0.0^4,6]octadec-7-ene-4-carbonyl](cyclopropyl)-sulfonamide], in that order: 0.2 nM and 1080 nM.
